From paper PMC7725003, “Systematically Studying the Optimal Amino Acid Distribution Patterns of the Amphiphilic Structure by Using the Ultrashort Amphiphiles” (Frontiers in Microbiology, 2020)
Where no end group is shown, it is not given here.

What was measured:
[1] = system: all of the tested bacterial strains; test: Geometric mean of MICs, all tested bacterial strains; type: cell-based; conditions: for GM, All: geometric mean of MICs across all tested strains; for TI, All: therapeutic index TI = MHC/GM MIC
Source text: The antimicrobial activity of AMPs is the most decisive index for evaluating the clinical application of antimicrobial drugs. Many antimicrobial agents inhibit bacterial growth rather than kill the bacteria quickly, and long-term infections are pathogens that are not completely killed, which results in bacterial severe drug resistance. […] The geometric mean (GM) values of the MICs/MBCs of the two series across all of the tested bacterial strains are represented in Table 3, which depicts the average bacteriostatic/bactericidal level of a peptide.
(§1) The antimicrobial activities of the peptides were measured using a method adapted from the National Committee for Clinical Laboratory Standards (NCCLS) with some modifications ([Chou et al., 2016]). The specific procedure for these assays has been previously described. In brief, the bacterial cells were grown to a mid-logarithmic phase and diluted in MHB to an ultimate concentration of 0.5–1 × 10^6 CFU mL^–1. Subsequently, the peptides were consecutively diluted in a 0.2% BSA solution and then added to a bacterial solution in a 96-well plate at identical volumes. After incubation for 24 h at 37°C, the MICs were determined to be the lowest peptide concentration that inhibited 95% of the bacterial growth by monitoring the absorbance at 492 nm using a microplate reader. Subsequently, 50 μL of each incubation mixture was further transferred to agar plates and incubated overnight. The minimum bactericidal concentrations (MBCs) were determined as the lowest peptide concentration that killed greater than 99.9% of the bacterial cells. Every assay was reproduced more than 3 times.

S. pullorum 7913 = type: cell-based, Salmonella pullorum; conditions: 7913, 24 h
Procedure: as §1

S. aureus 25923 = type: cell-based, Staphylococcus aureus; conditions: 25923, 24 h
Procedure: as §1

S. aureus 29213 [2] = type: cell-based, Staphylococcus aureus; conditions: 29213, 24 h
Procedure: as §1

MRSA 43300 = type: cell-based, methicillin-resistant S. aureus; conditions: 43300, 24 h
Procedure: as §1

E. coli ATCC 25922 = test: Salt sensitivity assay (MIC); type: cell-based, Escherichia coli; conditions: for MIC, FeCl3: 4 μM FeCl3; for MIC, NH4Cl: 6 μM NH4Cl; for MIC, ZnCl2: 8 μM ZnCl2; for MIC, MgCl2: 1 mM MgCl2; for MIC, CaCl2: 2 mM CaCl2; for MIC, KCl: 4.5 mM KCl; for MIC, NaCl: 150 mM NaCl; for MIC, Control: no added salt, three independent assays
Procedure: as §1
(§2) The salt sensitivities of the peptides were determined. E. coli ATCC 25922 and S. aureus ATCC 29213 were incubated in the presence of various ultimate concentrations of physiological salts (150 mM NaCl, 4.5 mM KCl, 6 μM NH4Cl, 8 μM ZnCl2, 1 mM MgCl2, 2mM CaCl2, and 4 μM FeCl3) according to our previous protocol ([Yang et al., 2019]). These tests were performed under the MICs, and three independent assays were performed.

[3] = system: Listeria monocytogenes CGMCC 1.1075; type: cell-based; conditions: CGMCC 1.1075, 24 h
Procedure: as §1

S. epidermidis 12228 = type: cell-based, Staphylococcus epidermidis; conditions: 12228, 24 h
Procedure: as §1

P. aeruginosa 27853 = type: cell-based, Pseudomonas aeruginosa; conditions: 27853, 24 h
Procedure: as §1

B. subtilis 63501 = type: cell-based, Bacillus subtilis; conditions: 63501, 24 h
Procedure: as §1

S. aureus 29213 [4] = test: Salt sensitivity assay (MIC); type: cell-based, Staphylococcus aureus; conditions: for MIC, FeCl3: 4 μM FeCl3; for MIC, NH4Cl: 6 μM NH4Cl; for MIC, ZnCl2: 8 μM ZnCl2; for MIC, MgCl2: 1 mM MgCl2; for MIC, CaCl2: 2 mM CaCl2; for MIC, KCl: 4.5 mM KCl; for MIC, NaCl: 150 mM NaCl; for MIC, Control: no added salt, three independent assays
Procedure: as §1, §2

E. faecalis 29212 = type: cell-based, Enterococcus faecalis; conditions: 29212, 24 h
Procedure: as §1

S. typhimurium 14028 = type: cell-based, Salmonella typhimurium; conditions: 14028, 24 h
Procedure: as §1

S. typhimurium 7731 = type: cell-based, Salmonella typhimurium; conditions: 7731, 24 h
Procedure: as §1

Gram-negative bacteria = conditions: for GM, Gram-negative bacteria: geometric mean of MICs (Table 3); for TI, Gram-negative bacteria: therapeutic index TI = MHC/GM MIC
Procedure: (§3) The antimicrobial activity of AMPs is the most decisive index for evaluating the clinical application of antimicrobial drugs.
as §1, with “The minimum bactericidal concentrations (MBCs) were determined as the lowest peptide concentration that killed greater than 99.9% of the bacterial cells.” left out

Gram-positive bacteria = conditions: for GM, Gram-positive bacteria: geometric mean of MICs (Table 3); for TI, Gram-positive bacteria: therapeutic index TI = MHC/GM MIC
Procedure: as §3
as §1, with “The minimum bactericidal concentrations (MBCs) were determined as the lowest peptide concentration that killed greater than 99.9% of the bacterial cells.” left out

E. coli 25922 = type: cell-based, Escherichia coli; conditions: 25922, 24 h
Procedure: as §1

E. coli UB1005 = type: cell-based, Escherichia coli; conditions: UB1005, 24 h
Procedure: as §1

E. coli O78 = type: cell-based, Escherichia coli; conditions: O78, 24 h
Procedure: as §1

WRRWRWRWW-NH2 [W3]
4.67 µM: GM, Gram-negative bacteria (Gram-negative bacteria)
16 µM: MIC, NaCl (E. coli ATCC 25922) | MBC (S. typhimurium 7731)
2.69 µM: GM, Gram-positive bacteria (Gram-positive bacteria)
8 µM: MBC (S. aureus 25923) | MBC (S. aureus 29213 [2]) | MIC, FeCl3 (E. coli ATCC 25922) | MIC, ZnCl2 (E. coli ATCC 25922) | MIC, MgCl2 (E. coli ATCC 25922) | MIC, CaCl2 (E. coli ATCC 25922) | MIC, KCl (E. coli ATCC 25922) | MBC [3] | MBC (P. aeruginosa 27853) | MIC, FeCl3 (S. aureus 29213 [4]) | MIC, NH4Cl (S. aureus 29213 [4]) | MIC, NaCl (S. aureus 29213 [4]) | MBC (E. faecalis 29212) | MBC (S. typhimurium 14028) | MIC (S. typhimurium 7731) | MBC (E. coli 25922) | MBC (E. coli UB1005) | MBC (E. coli O78)
95.17: TI, Gram-positive bacteria (Gram-positive bacteria)
69.75: TI, All [1]
3.67 µM: GM, All [1]
1 µM: MIC (B. subtilis 63501)
54.82: TI, Gram-negative bacteria (Gram-negative bacteria)
2 µM: MIC (S. pullorum 7913) | MIC (MRSA 43300) | MIC (S. epidermidis 12228) | MBC (B. subtilis 63501) | MIC, KCl (S. aureus 29213 [4])
4 µM: MBC (S. pullorum 7913) | MIC (S. aureus 25923) | MIC (S. aureus 29213 [2]) | MBC (MRSA 43300) | MIC, NH4Cl (E. coli ATCC 25922) | MIC, Control (E. coli ATCC 25922) | MIC [3] | MBC (S. epidermidis 12228) | MIC (P. aeruginosa 27853) | MIC, ZnCl2 (S. aureus 29213 [4]) | MIC, MgCl2 (S. aureus 29213 [4]) | MIC, CaCl2 (S. aureus 29213 [4]) | MIC, Control (S. aureus 29213 [4]) | MIC (E. faecalis 29212) | MIC (S. typhimurium 14028) | MIC (E. coli 25922) | MIC (E. coli UB1005) | MIC (E. coli O78)

WRRRRWWWW-NH2 [W11]
1 µM: MIC (B. subtilis 63501) | MIC, NH4Cl (S. aureus 29213 [4]) | MIC, KCl (S. aureus 29213 [4])
66.84: TI, All [1]
8 µM: MBC (S. pullorum 7913) | MIC, MgCl2 (E. coli ATCC 25922) | MIC, KCl (E. coli ATCC 25922) | MIC, NaCl (E. coli ATCC 25922) | MBC [3] | MIC (P. aeruginosa 27853) | MBC (E. faecalis 29212) | MIC (S. typhimurium 14028) | MIC (S. typhimurium 7731) | MBC (E. coli 25922) | MBC (E. coli UB1005) | MIC (E. coli O78)
16 µM: MIC, CaCl2 (E. coli ATCC 25922) | MBC (P. aeruginosa 27853) | MBC (S. typhimurium 14028) | MBC (S. typhimurium 7731) | MBC (E. coli O78)
5.88 µM: GM, Gram-negative bacteria (Gram-negative bacteria)
2.21 µM: GM, Gram-positive bacteria (Gram-positive bacteria)
3.83 µM: GM, All [1]
2 µM: MIC (S. aureus 25923) | MIC (S. aureus 29213 [2]) | MIC (MRSA 43300) | MIC, NH4Cl (E. coli ATCC 25922) | MIC, ZnCl2 (E. coli ATCC 25922) | MIC (S. epidermidis 12228) | MBC (B. subtilis 63501) | MIC, FeCl3 (S. aureus 29213 [4]) | MIC, ZnCl2 (S. aureus 29213 [4]) | MIC, MgCl2 (S. aureus 29213 [4]) | MIC, CaCl2 (S. aureus 29213 [4]) | MIC, NaCl (S. aureus 29213 [4]) | MIC, Control (S. aureus 29213 [4])
43.54: TI, Gram-negative bacteria (Gram-negative bacteria)
4 µM: MIC (S. pullorum 7913) | MBC (S. aureus 25923) | MBC (S. aureus 29213 [2]) | MBC (MRSA 43300) | MIC, FeCl3 (E. coli ATCC 25922) | MIC, Control (E. coli ATCC 25922) | MIC [3] | MBC (S. epidermidis 12228) | MIC (E. faecalis 29212) | MIC (E. coli 25922) | MIC (E. coli UB1005)
115.84: TI, Gram-positive bacteria (Gram-positive bacteria)

WWRWRRRWW-NH2 [W2]
61.24: TI, All [1]
2 µM: MIC (S. aureus 25923) | MIC (S. aureus 29213 [2]) | MIC (MRSA 43300) | MIC (S. epidermidis 12228) | MBC (B. subtilis 63501) | MIC, NH4Cl (S. aureus 29213 [4]) | MIC, Control (S. aureus 29213 [4])
4.18 µM: GM, All [1]
4 µM: MIC (S. pullorum 7913) | MBC (S. aureus 25923) | MBC (S. aureus 29213 [2]) | MBC (MRSA 43300) | MIC, NH4Cl (E. coli ATCC 25922) | MIC, ZnCl2 (E. coli ATCC 25922) | MIC, MgCl2 (E. coli ATCC 25922) | MIC, KCl (E. coli ATCC 25922) | MIC, Control (E. coli ATCC 25922) | MBC (S. epidermidis 12228) | MIC, FeCl3 (S. aureus 29213 [4]) | MIC, ZnCl2 (S. aureus 29213 [4]) | MIC, MgCl2 (S. aureus 29213 [4]) | MIC, CaCl2 (S. aureus 29213 [4]) | MIC, KCl (S. aureus 29213 [4]) | MIC, NaCl (S. aureus 29213 [4]) | MIC (S. typhimurium 7731) | MIC (E. coli 25922) | MIC (E. coli UB1005)
1 µM: MIC (B. subtilis 63501)
8 µM: MBC (S. pullorum 7913) | MIC, FeCl3 (E. coli ATCC 25922) | MIC, CaCl2 (E. coli ATCC 25922) | MIC (E. faecalis 29212) | MIC (S. typhimurium 14028) | MBC (S. typhimurium 7731) | MBC (E. coli 25922) | MBC (E. coli UB1005) | MIC (E. coli O78)
32 µM: MBC [3] | MBC (P. aeruginosa 27853)
86.20: TI, Gram-positive bacteria (Gram-positive bacteria)
5.44 µM: GM, Gram-negative bacteria (Gram-negative bacteria)
16 µM: MIC, NaCl (E. coli ATCC 25922) | MIC [3] | MIC (P. aeruginosa 27853) | MBC (E. faecalis 29212) | MBC (S. typhimurium 14028) | MBC (E. coli O78)
2.97 µM: GM, Gram-positive bacteria (Gram-positive bacteria)
47.06: TI, Gram-negative bacteria (Gram-negative bacteria)
